Results taken from patent publication US20160279236A1, “USE OF RAPAMYCIN AS VACCINE ADJUVANT AND PREPARATION METHOD THEREFOR” (INSTITUT PASTEUR OF SHANGHAI, CHINESE ACADEMY OF SCIENCES, priority 2013, published 2016).

How the values were obtained:
[1] = tested on: OVA-specific T cell responses and antibody responses; assay: Ovalbumin immunization of mice with adjuvants: OVA-specific T cell and antibody responses; type: in vivo
Experimental: 6-8 weeks aged mice were primarily immunized by the inventors using intraperitoneal injection method, wherein Ovalbumin (10 μg/mouse) was used as antigen and PBS (negative control), MPL (10 μg/mouse, positive control), rapamycin (100 μg/mouse), rapamycin (100 μg/mouse)+MPL (10 μg/mouse) as adjuvant respectively, and were immunized again with ovalbumin (10 μg/mouse, without adjuvant) at 3 weeks. […] After 48 hours, enzyme linked immunosorbent assay (ELISA) was used to determine the content of IFNγ in the supernatant.

[2] = tested on: melanoma murine cell line B16 OVA; assay: Tumor growth of B16 OVA melanoma in mice immunized with ovalbumin plus adjuvants; type: in vivo; details: ovalbumin 10 μg/mouse i.p. prime and boost; polyI:C 50 μg, rapamycin 100 μg, MPL 10 μg per mouse; B16 OVA 1×10^6 cells s.c. 4 weeks after secondary immunization
Experimental: By intraperitoneal injecting, 6-8 weeks aged mice were immunized using ovalbumin (10 μg/mouse) as antigen and PBS (200 μl, negative control), polyI:C (Invivogen) (50 μg/mouse), rapamycin (100 μg/mouse), MPL (10 μg/mouse), MPL (10 μg/mouse)+rapamycin (100 μg/mouse), polyI:C (50 μg/mouse)+rapamycin (100 μg/mouse) used as adjuvant to conduct primary immunization. After two weeks, the mice were boosted by the same program. 4 weeks after the secondary immunization, melanoma murine cell line B16 OVA expressing OVA was subcutaneous implanted into mice (1×10^6 cells/mouse), and the tumor growth was measured.

[3] = blood 1 week after secondary immunization, single adjuvants vs negative control, combination vs MPL alone

| Substance | OVA-specific IgG1 antibody titers [1, 3] | OVA-specific IgG2b antibody titers [1, 3] | OVA-specific IgG2c antibody titers [1, 3] | OVA-specific CD8+ T cell responses ([1]; mice i.p., ovalbumin 10 μg, MPL 10 μg, rapamycin 100 μg per mouse, IFNγ ELISA of splenic cells stimulated with OVA-1, 48 hours) | OVA-specific CD4+ (Th1) T cell responses ([1]; mice i.p., ovalbumin 10 μg, MPL 10 μg, rapamycin 100 μg per mouse, IFNγ ELISA of splenic cells stimulated with OVA-II, 48 hours) | tumor growth [2] |
| --- | --- | --- | --- | --- | --- | --- |
| monophosphoryl lipid A [MPL] | significantly increase | significantly increase | significantly increase | significantly increase | significantly increase |  |
| polyI:C |  |  |  |  |  | grew slowly and was of relatively small volume |
